Measured values taken from patent US11447482B1, “Imidazopyridine and oxazolopyridine derivatives and analogs thereof, methods of preparation thereof, methods of HIF-2A pathway inhibition, and induction of ferroptosis” (KUDA Therapeutics, Inc., priority 2019, dated 2022).
Values joined by “and” are separate entries in the source; they are usually repeats but may differ in a detail not shown here. Identical values can stand only once. Like-named read-outs stand apart in the source and are kept apart here.

Tests used:
[1] = tested on: HIF-2α transcriptional activity; experiment: Hypoxia-responsive element-driven luciferase (HRE-Luc) assay; type: cell-based, human; details: 786-0 CCRCC cells stably expressing HRE-Luc, 24 hours treatment
Experimental: (§1) Screens for inhibitory activity of compounds described herein were performed using 786-0 CCRCC cells that stably express HRE-Luc: 5 copies of the hypoxia-responsive element (HRE) fused to the pGL3 luciferase reporter (Promega Corp, Madison Wis.). 786-0 cells are pVHL deficient and thus constitutively express HIF-2α independently of cellular oxygen tension (Maxwell, Wiesener et al. 1999). Since 786-0 cells lack HIF-1α, HRE-driven luciferase activity is primarily HIF-2α driven, and has been previously validated (Koh, Lemos et al. 2011). Cells were maintained at log phase growth in Dulbecco's […] (DMEM) with 10% FBS in a humidified incubator at 37° C. with 5% CO2. For screening assays, cells were seeded at a density of 4,000 cells in 50 μl of complete media/well in quadruplicate wells/point in a 96-well plate. 24 hours later, 50 μl of a 2× concentration of test compound was added to each well. Compounds were diluted from a 5-10 mM stock in DMSO and final concentrations of DMSO in each well in controls and treated wells were kept constant at ≤0.6% DMSO. After 24 hours' treatment, luciferase activity was measured using the Steady-Glo Luciferase assay system (Promega Corp) according to the manufacturer's protocol. Cell viability was measured in quadruplicate parallel wells using resazurin as recommended by the manufacturer (R&D systems, Minneapolis, Minn.). Data for luciferase and resazurin were normalized to DMSO treated controls (defining 100%) and wells containing assay reagent but no cells (defining 0%), and graphed using the log inhibitor versus normalized response option in Prism7 Graphpad software. Representative data determined using Steady-Glo luciferase and resazurin are shown in FIGS. 1A and 1B respectively, with error bars showing standard error of the mean (SEM).

HIF-2α = experiment: Western blot of treated 786-0 cells: HIF-2α; type: cell-based, human; details: 786-0 CCRCC cells, 24 hours
Experimental: (§2) Western blots were performed to determine the effects of the compounds on levels of HIF-2α and other relevant proteins. 786-0 (pVHL deficient clear cell kidney cancer cells) were purchased from ATCC were plated at 1×10E5 cells/well in 2 ml DMEM with 10% FBS/well in 6-well tissue culture plates. Cells were allowed to adhere overnight in a humidified incubator at 37° C. with 5% CO2, after which the appropriate concentrations of compounds in DMSO were added. DMSO concentrations were kept constant in all wells. After 24 hour's exposure to the compounds, cells were lysed and subjected to western blotting according to standard protocols (Polek, Talpaz et al. 2003). Antibodies for HIF-2α and Glyceraldehyde 3-Phosphate Dehydrogenase (GAPDH) were purchased from Cell Signaling Technology (Danvers, Mass.), whereas antibodies to iron responsive element binding protein 2 (IRP2) and Glutathione Peroxidase 4 (GPX4) were from Santa Cruz Biotechnology (Dallas, Tex.) and R&D Systems, Inc (Minneapolis, Minn.). Representative data in FIG. 3 show a dose-dependent effect of compounds in decreasing HIF-2α. Compounds also impact cellular iron sensing given by increased IRP2, which taken together indicate that cells sense decreased amounts of available iron. Representative data shown in FIG. 5 Part C show a dose dependent effect of the compounds on GPX4, which may indicate decreased resistance to ferroptosis.

IRP2 = experiment: Western blot of treated 786-0 cells: IRP2; type: cell-based, human; details: 786-0 CCRCC cells, 24 hours
Experimental: as §2

recombinant ISCA2 = molecular target: T1, recombinant ISCA2 (Homo sapiens, UniProt Q86U28); experiment: Thermal shift assay (SYPRO Orange); type: binding
T1 construct: His6 (N); made in house
T1 sequence (Q86U28 9-154): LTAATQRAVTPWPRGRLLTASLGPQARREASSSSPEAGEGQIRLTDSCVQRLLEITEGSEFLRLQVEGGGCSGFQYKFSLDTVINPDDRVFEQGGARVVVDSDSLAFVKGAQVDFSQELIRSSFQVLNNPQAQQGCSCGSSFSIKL
Experimental: Thermal shift assays were performed by monitoring the change in protein melting temperature (Tm) in the absence or presence of test compounds, using the hydrophobic protein binding dye, SYPRO Orange (S6650, Thermo Fisher Scientific, Waltham, Mass.), measured using the LightCycler 480 (Roche Life Sciences, Indianapolis, Ind.) according to the manufacturer's protocol. Recombinant ISCA2 was produced by expressing amino acid residues 9-154 of ISCA2 (ISCA2 lacking its mitochondrial localization sequence) in the pET28 vector containing an N-terminal His6 tag in Rosetta (DE3) competent cells (Novagen, Millipore Sigma). ISCA2 production was induced by treating ISCA2 transformed log phase cells with 0.25 mM IPTG for 4 hours at 18° C. ISCA2 was purified using Ni^2+ affinity purification according to standard protocols and eluted in 50 mM Tris-Cl pH7.4, 150 mM NaCl, 5 mM DTT. Thermal shift assays were performed in 384-well plates using 1 μl of a 10× concentration of SYPRO Orange, 8 μl of ISCA2 (4 μg protein) and 1 μl of 1-2 mM stock of test compound per well. The LightCycler was used according to the following setup: LightCycler 480 Instrument Temperature Setup: First target of 20° C., with a Hold of 15 seconds; second target of 95° C., with Acquisition Mode of Continuous, and 10 acquisitions per degree C.; and third target of 20° C., with a Hold of 15 seconds. Tms were determined using Roche Protein Melting Analysis Software. Representative data are shown in FIGS. 7 and 8 using KD001 at 200 μM final concentration and KD025 at 100 μM final concentration respectively. Part A in these figures show the changes in fluorescence with increasing temperature in control (grey traces), or treated (black traces) wells. Part B show the ratio of changes in fluorescence (dF) with changes in temperature (dT), given by dF/dT, the peak of which indicates the melting temperature of ISCA2 under these assay conditions. In these examples, for KD001 in FIG. 7, the average Tm readings for control wells was 53.21±0.36° C. (replicate readings were 53.92, 52.83, 52.90), whereas Tm readings for KD001-treated wells were 55.63±0.26° C. (replicate readings were 55.10, 55.92, 55.96). Thus, treatment with KD001 results in a change in melting temperature of ISCA2 (dTm) of 2.41±0.44° C., with a Student's t-test p-value of 0.005. For KD025 in FIG. 8, the average Tm readings for control wells was 55.02±0.2° C. (replicate readings were 55.42, 54.83, 54.81), whereas Tm readings for KD025-treated wells were 56.3±0.02° C. (replicate readings were 56.33, 56.3, 56.27). Thus, treatment with KD025 results in a change in melting temperature of ISCA2 (dTm) of […], with a Student's t-test p-value of 0.003.

786-0 CCRCC cells [2] = experiment: Resazurin cell viability assay, with or without deferoxamine; type: cell-based, human; details: 24 hours; for ratio of resazurin IC50 to HRE-Luc IC50: 786-0 HRE-Luc cells, data of FIG. 1; for IC50: 786-0 CCRCC cells, resazurin
Experimental: as §1
In view of the increased cellular iron concentrations induced by the compounds described herein, the involvement of iron in mediating cell death was determined. Cell viability assays were performed as described in Example 2 using resazurin as a cell viability readout, and performed in the absence or presence of 100 μM of the iron chelator, deferoxamine (D9533, MilliporeSigma, St Louis, Mo.). […] The data support an iron-dependent mechanism of cell death, or feroptosis.

[3] = tested on: CMV-driven luciferase in 786-0 cells; experiment: CMV-Luciferase counter-screen (constitutive luciferase); type: cell-based, human; details: 786-0 CMV versus 786-0 HRE cells, data of FIG. 2
Experimental: Since it is possible that non-specific inhibitors of luciferase activity and/or translation may produce false-positives in our HRE-luciferase screens, counter-screens were performed using 786-0 cells that stably express a constitutively expressed luciferase construct. 786-0 cells stably expressing CMV-driven luciferase were generated using the pGL4.50 (luc2/CMV/Hygro) vector (Promega Corp) according to the manufacturers' protocol. 786-0 HRE and 786-0 CMV were seeded in 96-well plates and were screened according to the HRE-Luc assay protocol described in Example 2. Luciferase activity following compound treatment was determined using Steady Glo luciferase. Representative data are shown in FIG. 2, wherein A, B and C refer to treatments with KD02, KD007 and KD021 respectively. Filled circles indicate results from 786-0 HRE cells, whereas empty squares indicate results from 786-0 CMV cells.

786-0 CCRCC cells [4] = experiment: ICP-MS of cellular iron, zinc and copper; type: cell-based, human; details: 786-0 cells, 24 hours, 1.5 μM KD002 or KD021, 2.5 μM KD025HCl, versus DMSO
Experimental: These studies were performed to determine the content of iron and other transition metals in cells after exposure the compounds described herein. 786-0 cells were seeded at 1.5 million cells/flask in T75 cm^2 flasks in DMEM+10% FBS, and allowed to adhere overnight. Cells were then treated with indicated concentrations of compounds in DMSO or DMSO alone (vehicle) for a further 24 hours, after which cells were detached by trypsinization, counted, washed twice in PBS and pelleted. Experiments were performed using three replicate T75 cm^2 flasks per condition. A 5:1 mixture of nitric acid (OPTIMA Grade, 70%, Fisher Scientific) and ultrapure hydrogen peroxide (ULTREX II, 30%, Fisher Scientific) was added to cell pellets. This mixture was allowed to digest overnight, heated until dry, and resuspended in 2% nitric acid for analysis using an Agilent 7900 ICP-MS (Agilent Technologies, Santa Clara, Calif.). Calibration standard solutions for determination of Fe were prepared from Agilent multi-element calibration standard-2A. An Agilent Environmental Calibration Standard was used as an independent control. PBS-only control digestions were used to measure background. Metal readings were normalized to cell number. Data obtained from these studies for three replicate readings (with SEM) are shown in FIG. 4, which show an increase in cellular iron (Fe) content after treatment with indicated compounds.

Row | Structure (SMILES) | IC50 ([1]; Homo sapiens) | ratio of resazurin IC50 to HRE-Luc IC50 (786-0 CCRCC cells [2]) | HIF-2α protein relative to GAPDH (western blot) (HIF-2α) | IRP2 protein relative to GAPDH (western blot) (IRP2) | ratio of CMV-Luc IC50 to HRE-Luc IC50 [3] | cellular copper (Cu) content (ICP-MS) (786-0 CCRCC cells [4]) | cellular iron (Fe) content (ICP-MS) (786-0 CCRCC cells [4]) | cellular zinc (Zn) content (ICP-MS) (786-0 CCRCC cells [4]) | also measured
1 | COc1nccc2[nH]c(Nc3nnc(-c4ccc(F)cc4)o3)nc12 [KD002, 5-(4-Fluorophenyl)-N-(4-methoxy-1H-imidazo[4,5-c]pyridin-2-yl)-1,3,4-oxadiazol-2-amine] | 1.56 µM | 39.05 | decreases | increases | 7.9 | increases | increases | increases | –
2 | Fc1ccc(-c2nnc(Nc3nc4ncccc4o3)o2)cc1 [KD007, N-(5-(4-Fluorophenyl)-1,3,4-oxadiazol-2-yl)oxazolo[4,5-b]pyridin-2-amine] | 3.16 µM | 3.2 | – | – | 4.75 and 2.6 | – | – | – | –
3 | COc1ccc(-c2nnc(Nc3nc4c(OC)nccc4[nH]3)o2)cc1OC [KD025, N-(4-Methoxy-1H-imidazo[4,5-c]pyridin-2-yl)-5-(3,4-dimethoxyphenyl)-1,3,4-oxadiazol-2-amine] | 1.13 µM | – | – | – | – | – | – | – | Tm of ISCA2 in treated wells, replicate readings (recombinant ISCA2; 100 μM compound): 56.33 °C and 56.3 °C and 56.27 °C; change in melting temperature of ISCA2 (dTm) (recombinant ISCA2; 100 μM compound, p-value 0.003): 1.21±0.20 °C; ΔTm at 100 µM (recombinant ISCA2; 100 μM compound, p-value 0.003, read-out: change in melting temperature of ISCA2 (dTm)): 1.21 ± 0.2 °C; Tm of ISCA2 in treated wells (average) (recombinant ISCA2; 100 μM compound, control wells 55.02±0.2): 56.3±0.02 °C

Now from value to compound, other results behind:

Row | IC50 ([1]; Homo sapiens) | ratio of resazurin IC50 to HRE-Luc IC50 (786-0 CCRCC cells [2]) | Structure (SMILES) | HIF-2α protein relative to GAPDH (western blot) (HIF-2α) | IRP2 protein relative to GAPDH (western blot) (IRP2) | ratio of CMV-Luc IC50 to HRE-Luc IC50 [3] | cellular copper (Cu) content (ICP-MS) (786-0 CCRCC cells [4]) | cellular iron (Fe) content (ICP-MS) (786-0 CCRCC cells [4]) | cellular zinc (Zn) content (ICP-MS) (786-0 CCRCC cells [4]) | also measured
4 | 3.21 µM | – | COc1cccc2sc(Nc3nnc(-c4ccc(F)cc4)o3)nc12 [KD001, 5-(4-fluorophenyl)-N-(4-methoxybenzo[d]thiazol-2-yl)-1,3,4-oxadiazol-2-amine] | decreases | increases | – | – | – | – | Tm of ISCA2 in treated wells, replicate readings (recombinant ISCA2; 200 μM compound): 55.10 °C and 55.92 °C and 55.96 °C; change in melting temperature of ISCA2 (dTm) (recombinant ISCA2; 200 μM compound, p-value 0.005): 2.41±0.44 °C; ΔTm at 200 µM (recombinant ISCA2; 200 μM compound, p-value 0.005, read-out: change in melting temperature of ISCA2 (dTm)): 2.41 ± 0.44 °C; Tm of ISCA2 in treated wells (average) (recombinant ISCA2; 200 μM compound, control wells 53.21±0.36): 55.63±0.26 °C
5 | – | 2.75 | COc1ccc(-c2nnc(Nc3nc4c(OC)nccc4[nH]3)o2)cc1 [KD021, N-(4-methoxy-1H-imidazo[4,5-c]75yridine-2-yl)-5-(4-methoxyphenyl)-1,3,4-oxadiazol-2-amine] | – | – | – | increases | increases | increases | IC50 [1]: 1.4 µM; IC50 (786-0 CCRCC cells [2]; with 100 μM deferoxamine (DFO), read-out: cell viability IC50 in the presence of DFO): 83.6 µM; IC50 (786-0 CCRCC cells [2]; without DFO, read-out: cell viability IC50): 11.4 µM
